Data reported in ChEMBL document CHEMBL5154799, “Discovery of a Novel Stilbene Derivative as a Microtubule Targeting Agent Capable of Inducing Cell Ferroptosis” (J Med Chem, 2022).
The source made the active and inactive calls. The calls are words filed in the database; no cut-off is given here.

Assays:
A549 [1] = assay: Cell cycle arrest in human A549 cells assessed as downregulation of Cdc25C expression at 5 to 20 nM incubated for 24 to 48 hrs by Western blot analysis; type: functional, cell-based; settings: dose 5-20 nM, time 24-48 hrs
[2] = Tmax in ICR mouse at 1 mg/kg, iv single administration measured for 24 hrs post treatment by LC-MS/MS analysis; type: ADME, organism-based; settings: in vivo
[3] = Half life in ICR mouse at 1 mg/kg, iv single administration measured for 24 hrs post treatment by LC-MS/MS analysis; type: ADME, organism-based; settings: in vivo
[4] = Cytotoxicity against HUVEC cells assessed as reduction in cell viability; type: toxicity, cell-based; settings: human
SMMC-7721 = assay: Antiproliferative activity against human SMMC-7721 cells assessed as inhibition of cell proliferation incubated for 2 hrs by CCK-8 assay; type: functional, cell-based; settings: DDE = dose-dependent effect
[5] = Acute oral toxicity in rat assessed as survival at 17.5 to 175 mg/kg measured over 8 hours daily for 14 days; type: organism-based; settings: in vivo, 336 h, dose 17.5-175 mg/kg, time 14 day
A549 [6] = assay: Induction of ferroptosis in human A549 cells assessed as depletion of GSH levels at 10 nM upto 12 hrs; type: functional, cell-based
A549 [7] = assay: Induction of apoptosis in human A549 cells assessed as early apoptotic cells at 200 nM after 24 hrs by annexin V-FITC/PI staining based flow cytometry analysis relative to control; type: functional
Tubulin [8] = assay: Inhibition of tubulin polymerization (unknown origin) assessed as fluorescence intensity emission at 410 nm for 60 mins; type: protein-complex assay, Homo sapiens
HeLa = assay: Antiproliferative activity against human HeLa cells assessed as inhibition of cell proliferation incubated for 2 hrs by CCK-8 assay; type: functional, cell-based; settings: DDE = dose-dependent effect
[9] = Toxicity in human A549 cells xenografted in athymic nude BALB/c nude mouse assessed as morphological changes in liver at 10 mg/kg, ip measured after 30 days by H and E staining based histological analysis; type: organism-based; settings: in vivo, 720 h, time 30 day
[10] = Resistance index, ratio of IC50 for antiproliferative activity against human paclitaxel-resistant A2780/TAX cells to IC50 for antiproliferative activity against human A2780 cells; type: functional
HUVEC = assay: Vascular disruptive effect in HUVEC cells assessed as reduction in tube formation at 10 nM measured after 6 to 9 hrs; type: functional, cell-based; settings: Homo sapiens, time 6-9 hrs
A549 [11] = assay: Antiproliferative activity against human A549 cells assessed as cell viability incubated for 48 hrs by MTT assay; type: functional, cell-based; settings: A549, 48 h
A549 [12] = assay: Induction of ferroptosis in human A549 cells assessed as rupture of plasma membrane incubated for 24 hrs by CCK-8 assay; type: functional, cell-based
[13] = Oral bioavailability in ICR mouse at 10 mg/kg single administration measured for 24 hrs post treatment by LC-MS/MS analysis; type: ADME, organism-based; settings: in vivo
A549 [14] = assay: Resistance index, ratio of IC50 for antiproliferative activity against human adriamycin-resistant A549/ADR cells to IC50 for antiproliferative activity against human A549 cells; type: functional
A549 [15] = assay: Cell cycle arrest in human A549 cells assessed as increase in accumulation in G2/M phase incubated for 24 to 48 hrs by PI staining based flow cytometry analysis; type: functional; settings: dose 5-20 nM, time 24-48 hrs, DDE = dose-dependent effect
A549 [16] = assay: Cell cycle arrest in human A549 cells assessed as increase in accumulation in G2/M phase at 5 to 20 nM by PI staining based flow cytometry analysis; type: functional; settings: dose 5-20 nM, time 24-48 hrs, TDE = time-dependent effect
MCF7 = assay: Antiproliferative activity against human MCF7 cells assessed as inhibition of cell proliferation incubated for 2 hrs by CCK-8 assay; type: functional, cell-based; settings: DDE = dose-dependent effect
Tubulin (Homo sapiens) [17] = target: T1, Tubulin (Homo sapiens) (UniProt P68371+Q9H4B7+P0DPH7+P68366+Q13509+Q71U36+P04350+Q3ZCM7+P07437+P68363+Q9BQE3+Q6PEY2+Q13885+Q9BVA1+Q9BUF5); assay: Inhibition of [3H]colchicine binding to tubulin (unknown origin) at 0.3725 uM by competitive binding assay relative to control; type: protein-complex assay
HCT-8 = assay: Antiproliferative activity against human HCT-8 cells assessed as inhibition of cell proliferation incubated for 2 hrs by CCK-8 assay; type: functional, cell-based; settings: DDE = dose-dependent effect
A549 [18] = assay: Cell cycle arrest in human A549 cells assessed as downregulation of Cdc2 expression at 5 to 20 nM incubated for 24 to 48 hrs by Western blot analysis; type: functional, cell-based; settings: dose 5-20 nM, time 24-48 hrs
Tubulin (Homo sapiens) [19] = target: T1, Tubulin (Homo sapiens); assay: Induction of microtubule disruption in human A549 cells assessed as abnormal uncondensed cytoplasm at 5 to 20 uM incubated for 12 hrs by immunofluorescence based laser scanning confocal microscopic analysis; type: cell-based; settings: dose 5-20 µM
MGC-803 = assay: Antiproliferative activity against human MGC-803 cells assessed as inhibition of cell proliferation incubated for 2 hrs by CCK-8 assay; type: functional, cell-based; settings: DDE = dose-dependent effect
A549 [20] = assay: Cytotoxicity against human A549 cells assessed as reduction in cell viability; type: functional, cell-based
A549 [21] = assay: Induction of apoptosis in human A549 cells assessed as cell viability pretreated with ferroptosis inhibitor desferoxamine for 24 hrs followed by incubation with compound at 20 nM and measured after 48 hrs by CCK-8 assay; type: functional, cell-based
[22] = Cytotoxicity against human L02 cells assessed as reduction in cell viability; type: toxicity, cell-based
A549 [23] = assay: Induction of ferroptosis in human A549 cells assessed as accumulation of superoxide anions incubated for 24 hrs by DCFH-DA staining based fluorescence microscopy; type: functional, cell-based; settings: dose 5-10 nM, DDE = dose-dependent effect
[24] = Toxicity in athymic nude BALB/c mouse assessed as body weight loss at 10 mg/kg, ip measured for 30 days; type: organism-based; settings: in vivo, 720 h, time 30 day
Tubulin (Homo sapiens) [25] = target: T1, Tubulin (Homo sapiens); assay: Induction of microtubule disruption in human A549 cells assessed as abnormal chromosomes at 5 to 20 uM incubated for 12 hrs by immunofluorescence based laser scanning confocal microscopic analysis; type: cell-based; settings: dose 5-20 µM
[26] = Toxicity in human A549 cells xenografted in athymic nude BALB/c nude mouse assessed as morphological changes in spleen at 10 mg/kg, ip measured after 30 days by H and E staining based histological analysis; type: organism-based; settings: in vivo, 720 h, time 30 day
PC-3 = assay: Antiproliferative activity against human PC-3 cells assessed as inhibition of cell proliferation incubated for 2 hrs by CCK-8 assay; type: functional, cell-based; settings: DDE = dose-dependent effect
[27] = Resistance index, ratio of IC50 for antiproliferative activity against human vincristine-resistant HCT-8/VCR cells to IC50 for antiproliferative activity against HCT-8 cells; type: functional
Tubulin (Homo sapiens) [28] = target: T1, Tubulin (Homo sapiens); assay: Inhibition of [3H]colchicine binding to tubulin (unknown origin) at 5 uM by competitive binding assay relative to control; type: protein-complex assay
A549 [29] = assay: Induction of ferroptosis in human A549 cells assessed as cell swelling incubated for 24 hrs by CCK-8 assay; type: functional, cell-based
A549 [30] = assay: Induction of ferroptosis in human A549 cells assessed as induction of lipid […] accumulation at 5 to 20 nM incubated for 24 hrs by C11-BODIPY-581/591 staining based flow cytometry analysis; type: functional, cell-based; settings: dose 5-20 nM
[31] = Cmax in ICR mouse at 1 mg/kg, iv single administration measured for 24 hrs post treatment by LC-MS/MS analysis; type: ADME, organism-based; design: time 24 hrs, dose 1 mg/kg, route iv; settings: in vivo
Tubulin [32] = assay: Inhibition of [3H]colchicine binding to tubulin (unknown origin) by competitive binding assay; type: protein-complex assay, Homo sapiens
[33] = Cytotoxicity against human MCF-10A cells assessed as reduction in cell viability; type: toxicity, cell-based

## C=C(c1cc(OC)c(OC)c(OC)c1)c1ccc(OC)c(O)c1NC(=O)CO
A549 [1]
  Activity: Active
[2]
  Tmax: 4.8 min
[3]
  half-life: 37.2 min
[4]
  IC50: 40 nM
SMMC-7721
  Activity: Dde
[5]
  Activity: Non-Toxic
A549 [6]
  Activity: Active
A549 [7]
  Activity: 50.36%
Tubulin [8]
  IC50: 580 nM
HeLa
  Activity: Dde
[9]
  Activity: Non-Toxic
[10]
  Ratio IC50: 2
HUVEC
  Activity: Active
A549 [11]
  IC50: 10 nM
A549 [12]
  Activity: Active
[13]
  bioavailability: 69.5%
A549 [14]
  Ratio IC50: 2
A549 [15]
  Activity: Dde
A549 [16]
  Activity: Tde
MCF7
  Activity: Dde
Tubulin (Homo sapiens) [17]
  inhibition: 4.07%
HCT-8
  Activity: Dde
A549 [18]
  Activity: Active
Tubulin (Homo sapiens) [19]
  Activity: Active
MGC-803
  Activity: Dde
A549 [20]
  IC50: 10 nM
A549 [21]
  Activity: Active
[22]
  IC50: 1450 nM
A549 [23]
  Activity: Dde
[24]
  Activity: Non-Toxic
Tubulin (Homo sapiens) [25]
  Activity: Active
[26]
  Activity: Non-Toxic
PC-3
  Activity: Dde
[27]
  Ratio IC50: 1.75
Tubulin (Homo sapiens) [28]
  inhibition: 78.5%
A549 [29]
  Activity: Active
A549 [30]
  Activity: Active
[31]
  Cmax: 871 ng/mL
Tubulin [32]
  IC50: 1130 nM
[33]
  IC50: 540 nM
